From patent US9957252B2, “Metalloenzyme inhibitor compounds as fungicides” (Dow AgroSciences LLC, priority 2014, dated 2018)
Like-named read-outs stand apart in the source and are kept apart here.

How the values were obtained:
[1] = tested on: standard laboratory SEPTTR isolate (SI SEPTTR); Mycosphaerella graminicola; Anamorph: Septoria tritici; assay: Leaf blotch of wheat fungicidal activity, Type A assay (technical grade in acetone/water with Triton X-100, booth sprayer), standard laboratory isolate; assay type: in vivo, Mycosphaerella graminicola on wheat plants (variety Yuma); conditions: Zymoseptoria tritici, 24 h, 1 Day Protectant, wheat seedlings (Yuma), read-out: Disease control, SI SEPTTR Type A Assay (50 ppm) 1DP
Method: (§1) Evaluation of Fungicidal Activity: Leaf Blotch of Wheat (Mycosphaerella graminicola; Anamorph: Septoria tritici; Bayer code SEPTTR):
(§2) For Type A assays, technical grades of the experimental fungicides in Table 4 below were dissolved in acetone, and then mixed with nine volumes of water containing 110 ppm Triton X-100. The fungicide solutions were applied onto wheat seedlings using an automated booth sprayer. For Type B assays, emulsifiable concentrate (EC) formulations of technical grades of experimental fungicides in Table 4 below were prepared at 10% (w/v), and then mixed with 150 volumes of 0.1% Trycol 5941. The fungicide solutions were applied onto wheat seedlings using an automated track sprayer at 200 L/ha. All sprayed plants were allowed to air dry prior to further handling.
(§3) Wheat plants (variety Yuma) were grown from seed in a greenhouse in 50% mineral soil/50% soil-less Metro mix until the first leaf was fully emerged, with 7-10 seedlings per pot. Prior to or after application of experimental fungicides, plants were inoculated either with spores of a standard laboratory SEPTTR isolate (SI SEPTTR) or with spores from a SEPTTR field isolate collected from Wellsbourne, England in 2012 (FI SEPTTR). After inoculation, the plants were kept for 3 days at 20° C. in 100% relative humidity (one day in a dark dew chamber followed by two days in a lighted dew chamber). Plants were then transferred to a 20° C. greenhouse for disease development. When disease symptoms were fully expressed on untreated plants, infection levels on treated plants were assessed on a scale of 0 to 100 percent disease severity. Percent disease control was calculated using the ratio of disease severity on treated plants relative to untreated plants.

[2] = Leaf blotch of wheat fungicidal activity, Type B assay (10% EC formulation in 0.1% Trycol 5941, track sprayer 200 L/ha), field isolate; assay type: in vivo, Mycosphaerella graminicola on wheat plants (variety Yuma); conditions: Zymoseptoria tritici, 72 h, field isolate (Wellsbourne, England 2012), wheat seedlings (Yuma)
Method: as §1, §2, §3

[3] = 3 Day Curative, read-out: Disease control, FI SEPTTR Type B Assay (100 g/ha) 3DC
[4] = 3 Day Protectant, read-out: Disease control, FI SEPTTR Type B Assay (100 g/ha) 3DP

Compound	pest or weed control at 50 ppm [1]	pest or weed control at 100 g/ha [2, 3]	pest or weed control at 100 g/ha [2, 4]
COc1cc(-c2ccc(OC(F)(F)F)cc2C)ccc1C(O)(c1cncnc1)C(C)(C)C (stereo not shown) [Compound 52]	60 to 79%		
Cc1cc(-c2ccc(C(C)(C)C#N)cc2F)ccc1C(O)(c1cncnc1)C(C)(C)C (stereo not shown) [Compound 91]		80 to 100%	80 to 100%
Cc1cc(OC(F)(F)F)ccc1-c1ccc(C(O)(c2cncnc2)C(C)(C)C)c(Cl)c1 (stereo not shown) [Compound 99]		80 to 100%	80 to 100%
CC(C)(C)C(O)(c1cccnc1)c1ccc(-c2ccc(C#N)cc2)cc1Cl (stereo not shown) [Compound 68]		60 to 79%	80 to 100%
CC(C)(C)C(O)(c1ccc(-c2ccc(CC#N)cc2)cc1)c1cccnc1 (stereo not shown) [Compound 59]	80 to 100%		
CC(C)(C#N)c1ccc(-c2ccc(C(O)(c3cncnc3)C(C)(C)C)c(Cl)c2)cc1 (stereo not shown) [Compound 86]		60 to 79%	80 to 100%
COc1ncncc1C(O)(c1ccc(-c2ccc(OC(F)(F)F)cc2C)cc1F)C(C)(C)C (stereo not shown) [Compound 88]		80 to 100%	80 to 100%
CC(C)(C)C(O)(c1cccnc1)c1ccc(-c2ccc(C3(C#N)CC3)cc2)cc1Cl (stereo not shown) [Compound 70]		80 to 100%	80 to 100%
CC(C)(C)C(O)(c1cccnc1)c1ccc(-c2ccc(OCC(F)(F)F)cc2)cc1Cl (stereo not shown) [Compound 67]		80 to 100%	80 to 100%
COc1ncncc1C(O)(c1ccc(-c2ccc(C(C)(C)C#N)cc2)cc1F)C(C)(C)C (stereo not shown) [Compound 92]		80 to 100%	80 to 100%
CC(C)(C#N)c1ccc(-c2ccc(C(O)(c3cncnc3)C(C)(C)C)c(F)c2)c(F)c1 (stereo not shown) [Compound 101]		80 to 100%	80 to 100%
COC(c1cncnc1)(c1ccc(-c2ccc(C3(C#N)CC3)cc2)cc1F)C(C)(C)C (stereo not shown) [Compound 84]		80 to 100%	80 to 100%
CC(C)(C)C(O)(c1cncnc1)c1ccc(-c2ccc(C3(C#N)CC3)cc2)cc1Cl (stereo not shown) [Compound 89]		60 to 79%	80 to 100%
Cc1cc(-c2ccc(C3(C#N)CC3)cc2F)ccc1C(O)(c1cncnc1)C(C)(C)C (stereo not shown) [Compound 103]		80 to 100%	80 to 100%
COC(c1cncnc1)(c1ccc(-c2ccc(OCC(F)(F)F)cc2)cc1F)C(C)(C)C (stereo not shown) [Compound 83]		80 to 100%	80 to 100%
COC(c1cncnc1)(c1ccc(-c2ccc(C(C)(C)C#N)cc2)cc1F)C(C)(C)C (stereo not shown) [Compound 85]		80 to 100%	80 to 100%
COc1ncncc1C(O)(c1ccc(-c2ccc(OC(F)(F)F)cc2)cc1F)C(C)(C)C (stereo not shown) [Compound 96]		80 to 100%	80 to 100%
CC(C)(C)C(O)(c1cccnc1)c1ccc(-c2ccc(OC(F)(F)F)cc2)cc1Cl (stereo not shown) [Compound 64]		80 to 100%	80 to 100%
CC(C)(C#N)c1ccc(-c2ccc(C(O)(c3cccnc3)C(C)(C)C)c(Cl)c2)cc1 (stereo not shown) [Compound 71]		80 to 100%	80 to 100%
COc1ncncc1C(O)(c1ccc(-c2ccc(C3(C#N)CC3)cc2)cc1F)C(C)(C)C (stereo not shown) [Compound 100]		80 to 100%	80 to 100%
Cc1cc(OC(F)(F)F)ccc1-c1ccc(C(O)(c2cccnc2)C(C)(C)C)c(Cl)c1 (stereo not shown) [Compound 73]		40 to 59%	80 to 100%

Compound	pest or weed control at 50 ppm [1]	pest or weed control at 100 g/ha [2, 3]	pest or weed control at 100 g/ha [2, 4]
CC(C)(C)C(O)(c1cncnc1)c1ccc(-c2ccc(C3(C#N)CC3)cc2)cc1F (stereo not shown) [Compound 75]		80 to 100%	80 to 100%
CC(C)(C)C(O)(c1cncnc1)c1ccc(-c2ccc(OC(F)(F)F)cn2)cc1F (stereo not shown) [Compound 102]		80 to 100%	80 to 100%
COC(c1cncnc1)(c1ccc(-c2ccc(OCC(F)(F)F)nc2)cc1F)C(C)(C)C (stereo not shown) [Compound 82]		80 to 100%	80 to 100%
CC(C)(C#N)c1ccc(-c2ccc(C(O)(c3cncnc3)C(C)(C)C)c(Cl)c2)c(F)c1 (stereo not shown) [Compound 95]		80 to 100%	80 to 100%
CC(C)(C)C(O)(c1cccnc1)c1ccc(-c2ccc(CC#N)cc2)cc1Cl (stereo not shown) [Compound 69]		40 to 59%	80 to 100%
CC(C)(C)C(O)(c1cncnc1)c1ccc(-c2ccc(OCC(F)(F)F)nc2)cc1F (stereo not shown) [Compound 76]		80 to 100%	60 to 79%
Cc1cc(C(C)(C)C#N)ccc1-c1ccc(C(O)(c2cncnc2)C(C)(C)C)c(F)c1 (stereo not shown) [Compound 105]		80 to 100%	80 to 100%
CC(C)(C)c1ccc(-c2ccc(C(O)(c3cccnc3)C(C)(C)C)c(Cl)c2)cc1 (stereo not shown) [Compound 72]		60 to 79%	80 to 100%
CC(C)(C#N)c1ccc(-c2ccc(C(O)(c3cncnc3)C(C)(C)C)c(F)c2)cc1 (stereo not shown) [Compound 77]		80 to 100%	80 to 100%
CC(C)(C)C(O)(c1cncnc1)c1ccc(-c2ccc(C3(C#N)CC3)cc2F)cc1Cl (stereo not shown) [Compound 106]		60 to 79%	80 to 100%
COC(c1cncnc1)(c1ccc(-c2ccc(OC(F)(F)F)cc2F)cc1F)C(C)(C)C (stereo not shown) [Compound 81]		80 to 100%	80 to 100%
COc1ncncc1C(O)(c1ccc(-c2ccc(OCC(F)(F)F)nc2)cc1F)C(C)(C)C (stereo not shown) [Compound 87]		80 to 100%	80 to 100%
CC(C)(C)C(O)(c1cccnc1)c1ccc(-c2ccc(OC(F)F)cc2)cc1Cl (stereo not shown) [Compound 66]		< 40%	80 to 100%
CC(C)(C)C(O)(c1cccnc1)c1ccc(-c2ccc(SC(F)(F)F)cc2)cc1Cl (stereo not shown) [Compound 65]		80 to 100%	80 to 100%
Cc1cc(OC(F)(F)F)ccc1-c1ccc(C(O)(c2cncnc2)C(C)(C)C)c(F)c1 (stereo not shown) [Compound 74]		80 to 100%	80 to 100%
CC(C)(C)C(O)(c1cncnc1)c1ccc(-c2ccc(OC(F)(F)F)cc2F)cc1Cl (stereo not shown) [Compound 104]		80 to 100%	80 to 100%
Cc1cc(-c2ccc(OC(F)(F)F)cn2)ccc1C(O)(c1cncnc1)C(C)(C)C (stereo not shown) [Compound 94, 2,2-dimethyl-1-(2-methyl-4-(5-(trifluoromethoxy)pyridin-2-yl)phenyl)-1-(pyrimidin-5-yl)propan-1-ol]		80 to 100%	80 to 100%
COC(c1cncnc1)(c1ccc(-c2ccc(OC(F)(F)F)cc2)cc1F)C(C)(C)C (stereo not shown) [Compound 79, 5-(1-(3-fluoro-4′-(trifluoromethoxy)-[1,1′-biphenyl]-4-yl)-1-methoxy-2,2-dimethylpropyl)pyrimidine]		80 to 100%	80 to 100%
CC(C)(C)C(O)(c1cncnc1)c1ccc(-c2ccc(C3(C#N)CC3)cc2F)cc1F (stereo not shown) [Compound 97]		80 to 100%	80 to 100%
CC(C)(C)C(O)(c1cncnc1)c1ccc(-c2ccc(OC(F)(F)F)cc2F)cc1F (stereo not shown) [Compound 78]		80 to 100%	80 to 100%
COC(c1cncnc1)(c1ccc(-c2ccc(OC(F)(F)F)cc2C)cc1F)C(C)(C)C (stereo not shown) [Compound 80]		80 to 100%	80 to 100%
